Results reported in patent US20260130933A1, “PHARMACEUTICAL COMPOSITION FOR PREVENTION OR TREATMENT OF NEPHROPATHY AND/OR DIABETES MELLITUS, COMPRISING ENAVOGLIFLOZIN” (DAEWOONG PHARMACEUTICAL CO., LTD., priority 2022, published 2026).

Experiment: Example 3: phase 3 trial, enavogliflozin 0.3 mg vs dapagliflozin 10 mg once a day for 24 weeks added to metformin and gemigliptin in patients with type 2 diabetes (same endpoints, rescue drug)
Type: in vivo, human
Details: week 24
Description: 1) when Metformin (≥1,000 mg/Day) was Administered at a Constant Dose for at Least 8 Weeks Prior to Pre-Visit (Pre-Screening) • Metformin (≥1,000 mg/day) and gemigliptin (50 mg/day) were co-administered during the 8-week stabilization period. […] 4) when Metformin (≥1,000 mg/Day) and Gemigliptin (50 mg/Day) were Co-Administered at Constant Doses for at Least 8 Weeks Prior to Pre-Visit (Prescreening) • Without a separate stabilization period, Pre-visit (pre-screening) was Visit 1 (screening).
Subjects who met the inclusion/exclusion criteria continued to receive metformin and gemigliptin while receiving a placebo of the clinical trial drug in a single-blind (subject-blinded) state for a 2-week run-in period.
Here, the randomized subjects were stratified according to the administration therapy (co-administration with two or less agents (one or two agents) or three or more agents) of a conventional hypoglycemic agent (before washout of another hypoglycemic agent) within 24 weeks prior to obtaining written informed consent and by an HbA1c value (<8% or ≥8%) at Visit 1 (screening) measured in the central laboratory.
The randomized subjects were administered two tablets of the clinical trial drug corresponding to each administration group once a day, and then visited the institution at weeks 6, 12, 18, and 24 during the 24-week administration period to conduct efficacy and safety assessments. In addition, during the clinical trial period, they were instructed to exercise regularly and control their diet without changing their daily life patterns.
• 1) Change in HbA1c at week 24 after administration of clinical trial drug compared to Visit 2 (randomization)
• 1) Change in HbA1c at each time point of weeks 6, 12, and 18 after administration of clinical trial drug compared to Visit 2 (randomization) • 2) Change in FPG at each time point of weeks 6, 12, 18, and 24 after administration of clinical trial drug compared to Visit 2 (randomization) • 3) Proportion of subjects achieving HbA1c<7% at each time point of weeks 6, 12, 18, and 24 after administration of clinical trial drug • 4) Proportion of subjects achieving HbA1c<6.5% at each time point of weeks 6, 12, 18, and 24 after administration of clinical trial drug • 5) Proportion of subjects achieving therapeutic response (HbA1c change (HbA1c at Visit 2—HbA1c at each evaluation time point)>0.5% or HbA1c<7% at each evaluation time point compared to Visit 2 (randomization)) at each time point of weeks 6, 12, 18, and 24 after administration of clinical trial drug • 6) Proportion of subjects achieving therapeutic response (HbA1c change (HbA1c at Visit 2—HbA1c at each evaluation time point)>0.7% or HbA1c<7% at each evaluation time point compared to Visit 2 (randomization)) at each time point of weeks 6, 12, 18, and 24 after administration of clinical trial drug • 7) Proportion of subjects achieving therapeutic response (HbA1c change (HbA1c at Visit 2—HbA1c at each evaluation time point)>1% or HbA1c<7% at each evaluation time point compared to Visit 2 (randomization)) at each time point of weeks 6, 12, 18, and 24 after administration of clinical trial drug

[1] = modified per-protocol set 2, enavogliflozin 0.3 mg, dapagliflozin 10 mg
[2] = per-protocol set, enavogliflozin 0.3 mg vs dapagliflozin 10 mg
[3] = per-protocol set, enavogliflozin 0.3 mg, dapagliflozin 10 mg

## OC[C@H]1O[C@@H](c2cc(Cc3ccc(C4CC4)cc3)c(Cl)c3c2CCO3)[C@H](O)[C@@H](O)[C@@H]1O [Enavogliflozin, (2S,3R,4R,5S,6R)-2-(7-chloro-6 (4-cyclopropylbenzyl)-2,3-dihydrobenzofuran-4-yl)-6-(hydroxymethyl)tetrahydro-2H-pyran-3,4,5-triol]
Modified per-protocol set 2
  Change from baseline in diastolic blood pressure, Median: −3.00 mmHg
  Diastolic blood pressure, Mean: 73.40 mmHg
  Diastolic blood pressure, Median: 73.50 mmHg
Modified per-protocol set 2, enavogliflozin 0.3 mg vs dapagliflozin 10 mg
  Change from baseline in systolic blood pressure, ANCOVA LS mean difference: −0.22 mmHg
[1]
  Change from baseline in systolic blood pressure, ANCOVA LS mean: −4.49 mmHg
  Change from baseline in systolic blood pressure, Mean: −5.20 mmHg
  Change from baseline in systolic blood pressure, Median: −5.00 mmHg
  Systolic blood pressure, Mean: 122.29 mmHg
  Systolic blood pressure, Median: 121.00 mmHg
per-protocol set
  Adiponectin, Mean: 7.62 µg/mL
  Adiponectin, Median: 6.49 µg/mL
  Change from baseline in HOMA-IR, ANCOVA LS mean: −1.09
  Change from baseline in HOMA-IR, LS mean difference (enavogliflozin − dapagliflozin): −0.16
  Change from baseline in HOMA-IR, Mean: −1.07
  Change from baseline in HOMA-IR, Median: −0.80
  Change from baseline in HOMA-β, ANCOVA LS mean: 1.09
  Change from baseline in HOMA-β, LS mean difference (enavogliflozin − dapagliflozin): −4.69
  Change from baseline in HOMA-β, Mean: 2.57
  Change from baseline in HOMA-β, Median: 5.70
  Change from baseline in UACR, ANCOVA LS mean: -15.34 g/kg
  Change from baseline in UACR, LS mean difference (enavogliflozin − dapagliflozin): 0.79 g/kg
  Change from baseline in UACR, Mean: -19.52 g/kg
  Change from baseline in UACR, Median: -1.55 g/kg
  Change from baseline in UGCR, ANCOVA LS mean: 60.22 mg/mg
  Change from baseline in UGCR, LS mean difference (enavogliflozin − dapagliflozin): 16.71 mg/mg
  Change from baseline in UGCR, Mean: 59.39 mg/mg
  Change from baseline in UGCR, Median: 55.98 mg/mg
  Change from baseline in adiponectin, ANCOVA LS mean: 1.42 µg/mL
  Change from baseline in adiponectin, LS mean difference (enavogliflozin − dapagliflozin): 0.49 µg/mL
  Change from baseline in adiponectin, Mean: 1.39 µg/mL
  Change from baseline in adiponectin, Median: 1.11 µg/mL
  Change from baseline in leptin, ANCOVA LS mean: -1.46 ng/mL
  Change from baseline in leptin, LS mean difference (enavogliflozin − dapagliflozin): -0.89 ng/mL
  Change from baseline in leptin, Mean: -1.52 ng/mL
  Change from baseline in leptin, Median: -0.91 ng/mL
  HOMA-IR (insulin resistance), Mean: 1.84
  HOMA-IR (insulin resistance), Median: 1.56
  HOMA-β (beta-cell function), Mean: 45.48
  HOMA-β (beta-cell function), Median: 41.40
  Leptin, Mean: 8.95 ng/mL
  Leptin, Median: 6.03 ng/mL
  UACR, Mean: 27.90 g/kg
  UACR, Median: 11.10 g/kg
  UGCR, Mean: 60.12 mg/mg
  UGCR, Median: 57.96 mg/mg
[2]
  Achieving HbA1c target of <6.5%, odds ratio (logistic regression model): 1.27
  Achieving HbA1c target of <7%, odds ratio (logistic regression model): 1.17
  Change from baseline in FPG, ANCOVA LS mean difference: -3.49 mg/dL
  Change from baseline in body weight, ANCOVA LS mean difference: -0.15 kg
  Change from baseline in fasting C-peptide, ANCOVA LS mean difference: -0.01 ng/mL
  Therapeutic glycemic response 1, odds ratio (logistic regression model): 1.15
  Therapeutic glycemic response 2, odds ratio (logistic regression model): 0.98
  Therapeutic glycemic response 3, odds ratio (logistic regression model): 1.22
[3]
  Body weight, Mean: 66.19 kg
  Change from baseline in FPG, ANCOVA LS mean: -27.21 mg/dL
  Change from baseline in FPG, Mean: -26.31 mg/dL
  Change from baseline in FPG, Median: -20.00 mg/dL
  Change from baseline in body weight, ANCOVA LS mean: -3.15 kg
  Change from baseline in body weight, Mean: -3.09 kg
  Change from baseline in body weight, Median: -3.00 kg
  Change from baseline in fasting C-peptide, ANCOVA LS mean: -0.09 ng/mL
  Change from baseline in fasting C-peptide, Mean: -0.09 ng/mL
  Change from baseline in fasting C-peptide, Median: -0.07 ng/mL
  FPG, Mean: 113.03 mg/dL
  FPG, Median: 110.00 mg/dL
  Fasting C-peptide, Mean: 0.64 ng/mL
  Fasting C-peptide, Median: 0.63 ng/mL
  Subjects achieving HbA1c target of <6.5%, (%): 21.01%
  Subjects achieving HbA1c target of <7%, %: 66.39%
  body weight, Median: 65.10 kg
per-protocol set, response 1 = HbA1c change >0.5% or HbA1c <7%, enavogliflozin 0.3 mg, dapagliflozin 10 mg
  Subjects achieving therapeutic glycemic response 1, %: 86.55%
per-protocol set, response 2 = HbA1c change >0.7% or HbA1c <7%, enavogliflozin 0.3 mg, dapagliflozin 10 mg
  Subjects achieving therapeutic glycemic response 2, %: 81.51%
per-protocol set, response 3 = HbA1c change >1% or HbA1c <7%, enavogliflozin 0.3 mg, dapagliflozin 10 mg
  Subjects achieving therapeutic glycemic response 3, %: 78.15%
